Results taken from PMC7092418 (Genes and Environment, 2020).

Key:
S. typhimurium YG9028 = details: Salmonella typhimurium
rat = details: in vivo; cited from earlier work

SMILES | Specific mutagenicity (S. typhimurium YG9028) [revertants/plate/nmole] | Carcinogenicity (rat)
COS(C)(=O)=O [MMS, Methylmethane sulfonate] | 0.205 | 
[N-]=[N+]=[N-].[Na+] [sodium azide] |  | non-carcinogenic
